# According to publication PMC6928688, “Identification of Novel PI3Kδ Selective Inhibitors by SVM-Based Multistage Virtual Screening and Molecular Dynamics Simulations” (International Journal of Molecular Sciences, 2019):
# pIC50: −log10 of the molar value. Entries after “also recorded” stand apart in the source; their conditions may differ. Like-named read-outs stand apart in the source and are kept apart here.
# Key:
# Type in all cases: biochemical
# recombinant PI3Kδ kinase [1] = molecular target: T1, recombinant PI3Kδ kinase (Homo sapiens, UniProt O00329); assay: Cell free PI3Kδ kinase activity, ADP-Glo chemiluminescence assay
# T1 sequence (O00329 whole entry): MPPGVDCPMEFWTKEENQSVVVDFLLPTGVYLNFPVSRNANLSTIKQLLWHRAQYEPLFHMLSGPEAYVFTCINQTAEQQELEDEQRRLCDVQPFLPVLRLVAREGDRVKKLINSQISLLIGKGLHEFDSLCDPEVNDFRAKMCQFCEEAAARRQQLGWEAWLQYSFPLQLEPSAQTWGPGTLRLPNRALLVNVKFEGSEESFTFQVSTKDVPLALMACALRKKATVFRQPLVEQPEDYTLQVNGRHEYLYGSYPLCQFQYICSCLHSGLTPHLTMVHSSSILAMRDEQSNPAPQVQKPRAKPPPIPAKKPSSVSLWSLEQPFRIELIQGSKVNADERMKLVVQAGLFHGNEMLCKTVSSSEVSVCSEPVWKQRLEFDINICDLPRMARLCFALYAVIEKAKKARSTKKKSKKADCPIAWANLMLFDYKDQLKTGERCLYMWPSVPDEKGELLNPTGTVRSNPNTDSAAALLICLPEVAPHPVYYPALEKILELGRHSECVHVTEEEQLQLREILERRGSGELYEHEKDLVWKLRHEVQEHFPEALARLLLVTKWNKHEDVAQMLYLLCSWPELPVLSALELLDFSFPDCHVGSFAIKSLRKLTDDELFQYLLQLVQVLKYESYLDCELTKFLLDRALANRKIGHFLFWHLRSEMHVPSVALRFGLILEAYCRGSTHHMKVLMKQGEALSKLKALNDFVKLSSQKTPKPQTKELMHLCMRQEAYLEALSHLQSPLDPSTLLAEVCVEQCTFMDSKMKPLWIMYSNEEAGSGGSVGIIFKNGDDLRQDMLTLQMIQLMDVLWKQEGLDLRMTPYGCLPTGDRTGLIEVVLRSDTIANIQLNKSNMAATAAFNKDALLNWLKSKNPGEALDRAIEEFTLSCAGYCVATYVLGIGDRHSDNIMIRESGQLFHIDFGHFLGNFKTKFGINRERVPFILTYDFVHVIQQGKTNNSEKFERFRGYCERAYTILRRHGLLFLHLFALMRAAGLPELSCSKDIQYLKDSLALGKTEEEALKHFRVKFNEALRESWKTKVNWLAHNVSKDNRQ
# T1 sequence (P27986 whole entry partner): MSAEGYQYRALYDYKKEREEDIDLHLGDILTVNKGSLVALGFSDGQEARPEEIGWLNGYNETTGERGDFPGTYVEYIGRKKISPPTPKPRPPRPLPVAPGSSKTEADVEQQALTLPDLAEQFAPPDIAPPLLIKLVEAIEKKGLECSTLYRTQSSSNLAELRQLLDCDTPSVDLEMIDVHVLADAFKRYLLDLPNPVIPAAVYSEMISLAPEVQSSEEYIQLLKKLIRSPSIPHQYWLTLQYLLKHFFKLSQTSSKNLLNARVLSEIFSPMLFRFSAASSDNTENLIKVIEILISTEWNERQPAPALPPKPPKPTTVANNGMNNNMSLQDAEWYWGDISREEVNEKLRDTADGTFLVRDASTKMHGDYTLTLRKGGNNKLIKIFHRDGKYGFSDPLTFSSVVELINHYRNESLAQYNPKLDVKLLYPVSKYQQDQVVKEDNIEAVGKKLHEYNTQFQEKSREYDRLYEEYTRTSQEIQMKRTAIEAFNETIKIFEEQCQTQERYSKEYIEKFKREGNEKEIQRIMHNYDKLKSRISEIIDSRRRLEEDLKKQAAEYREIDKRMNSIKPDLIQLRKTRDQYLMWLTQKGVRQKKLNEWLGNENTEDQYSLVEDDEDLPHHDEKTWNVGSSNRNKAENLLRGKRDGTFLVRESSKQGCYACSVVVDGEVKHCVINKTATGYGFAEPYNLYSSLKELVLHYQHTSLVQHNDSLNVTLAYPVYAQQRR
# Source text: The chemiluminescence method was used to determine the inhibitory effect of the 15 hit compounds on PI3Kδ (Table 5). […] For 14317, the reason for its high activity was probably the long side chain on its guanine, which was the same as the reported PI3Kδ selective inhibitor Compound 1 (idelalisib) and Compound 7 (GNE-293). For Compounds 9 and 10, the reason the pyridazinone skeleton made them so active requires further study. Finally, the two compounds with the novel skeleton were selected for the subsequent molecular dynamics (MD) simulations. […]
# The inhibitory activities of inhibitors against PI3Kδ were determined by the ADP-Glo assay. The recombinant PI3Kδ kinase was diluted to 2.2 μg/mL using reaction buffer (50 mM HEPES, pH 7.5, 10 mM MgCl2, 0.1 mg/mL BSA, 2 mM DTT, 1% DMSO), and ATP was diluted with reaction buffer (10 mM) to 250 μM, and the test compound and positive drug (idelalisib) were formulated into four concentration-gradient solutions (6 × 10^−2 M, 6 × 10^−4 M, 6 × 10^−6 M, 6 × 10^−8 M). The reaction was started by sequentially adding 2 μL of an ATP solution, 1 μL of a drug solution, and 2 μL of an enzyme solution in 96 wells. The assay was conducted for 1 h at 37 °C before the addition of 5 μL ADP-Glo reagent and incubation for 40 min at room temperature. A 10 μL amount of kinase detection reagent (Promega, Beijing, China) was added and incubated for 30 min at room temperature before the luminescence value was measured using a chemiluminescence module of a full-wavelength multi-function microplate reader (PerkinElmer, Singapore).
# PI3Kα = PI3Kα (Homo sapiens, UniProt P42336); assay: PI3K isoform selectivity, chemiluminescence kinase assay (α); details: isoform selectivity experiment
# PI3Kα, sequence (P42336 whole entry, species assumed, canonical isoform): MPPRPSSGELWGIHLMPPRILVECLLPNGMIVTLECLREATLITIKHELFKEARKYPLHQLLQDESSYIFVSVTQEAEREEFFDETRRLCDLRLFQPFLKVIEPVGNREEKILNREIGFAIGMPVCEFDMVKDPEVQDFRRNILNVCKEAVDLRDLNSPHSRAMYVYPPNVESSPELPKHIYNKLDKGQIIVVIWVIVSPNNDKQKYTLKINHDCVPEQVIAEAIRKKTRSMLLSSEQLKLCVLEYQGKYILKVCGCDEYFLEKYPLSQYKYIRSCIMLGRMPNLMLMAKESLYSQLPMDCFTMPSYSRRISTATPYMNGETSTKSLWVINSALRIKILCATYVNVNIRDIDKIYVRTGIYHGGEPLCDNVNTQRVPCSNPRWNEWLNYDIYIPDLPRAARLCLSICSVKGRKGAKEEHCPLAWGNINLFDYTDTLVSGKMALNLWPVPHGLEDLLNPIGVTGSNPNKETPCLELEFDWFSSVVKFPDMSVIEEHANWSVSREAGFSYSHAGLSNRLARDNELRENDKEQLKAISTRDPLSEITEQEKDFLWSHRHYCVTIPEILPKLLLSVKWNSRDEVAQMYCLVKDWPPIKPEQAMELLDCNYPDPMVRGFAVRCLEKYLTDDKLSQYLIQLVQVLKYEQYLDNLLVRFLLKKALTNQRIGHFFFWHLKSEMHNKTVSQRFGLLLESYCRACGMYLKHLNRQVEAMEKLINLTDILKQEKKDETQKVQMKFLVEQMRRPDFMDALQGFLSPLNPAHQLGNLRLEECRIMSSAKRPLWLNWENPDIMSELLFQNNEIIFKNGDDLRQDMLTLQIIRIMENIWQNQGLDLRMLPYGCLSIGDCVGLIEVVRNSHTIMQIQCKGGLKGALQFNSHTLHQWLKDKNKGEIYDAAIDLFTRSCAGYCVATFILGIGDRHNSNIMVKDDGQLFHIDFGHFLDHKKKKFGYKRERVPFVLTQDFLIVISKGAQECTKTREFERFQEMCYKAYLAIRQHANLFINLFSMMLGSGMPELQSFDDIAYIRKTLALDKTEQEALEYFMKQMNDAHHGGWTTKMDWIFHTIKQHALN
# PI3Kα, sequence (P27986 whole entry partner, species assumed, canonical isoform): as the sequence (P27986 whole entry partner) above
# PI3Kβ = PI3Kβ (Homo sapiens, UniProt P42338); assay: PI3K isoform selectivity, chemiluminescence kinase assay (β); details: isoform selectivity experiment
# PI3Kβ, sequence (P42338 whole entry, canonical isoform): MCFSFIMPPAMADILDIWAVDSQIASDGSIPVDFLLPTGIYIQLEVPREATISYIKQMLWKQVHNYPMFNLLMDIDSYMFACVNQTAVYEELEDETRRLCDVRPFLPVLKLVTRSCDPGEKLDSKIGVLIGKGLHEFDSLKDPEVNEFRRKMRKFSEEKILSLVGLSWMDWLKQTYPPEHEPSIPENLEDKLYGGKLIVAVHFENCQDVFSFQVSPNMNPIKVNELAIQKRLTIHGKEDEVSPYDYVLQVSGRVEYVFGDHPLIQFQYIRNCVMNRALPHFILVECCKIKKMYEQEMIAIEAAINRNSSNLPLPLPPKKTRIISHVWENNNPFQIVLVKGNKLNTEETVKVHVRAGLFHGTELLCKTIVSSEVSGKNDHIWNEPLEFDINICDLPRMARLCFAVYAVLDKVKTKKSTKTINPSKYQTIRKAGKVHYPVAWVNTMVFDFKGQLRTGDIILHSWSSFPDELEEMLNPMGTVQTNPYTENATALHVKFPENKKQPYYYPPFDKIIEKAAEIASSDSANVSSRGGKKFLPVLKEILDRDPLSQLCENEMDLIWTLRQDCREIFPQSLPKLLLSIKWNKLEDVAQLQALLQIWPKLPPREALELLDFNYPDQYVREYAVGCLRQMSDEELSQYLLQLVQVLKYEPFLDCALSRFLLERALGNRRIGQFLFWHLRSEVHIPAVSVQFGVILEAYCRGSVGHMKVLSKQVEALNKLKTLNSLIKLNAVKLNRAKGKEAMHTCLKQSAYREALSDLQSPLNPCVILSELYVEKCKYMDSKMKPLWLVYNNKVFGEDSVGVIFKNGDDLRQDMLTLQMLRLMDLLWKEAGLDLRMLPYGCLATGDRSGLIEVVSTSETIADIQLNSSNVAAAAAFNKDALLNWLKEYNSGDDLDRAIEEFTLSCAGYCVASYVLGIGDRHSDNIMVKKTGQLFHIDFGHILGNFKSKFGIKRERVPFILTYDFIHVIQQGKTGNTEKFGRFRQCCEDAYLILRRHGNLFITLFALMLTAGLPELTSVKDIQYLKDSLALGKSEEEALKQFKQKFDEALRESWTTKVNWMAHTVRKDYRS
# PI3Kβ, sequence (P27986 whole entry partner, canonical isoform): as the sequence (P27986 whole entry partner) above
# PI3Kγ = PI3Kγ (Homo sapiens, UniProt P48736); assay: PI3K isoform selectivity, chemiluminescence kinase assay (γ); details: isoform selectivity experiment
# PI3Kγ, sequence (P48736 whole entry, canonical isoform): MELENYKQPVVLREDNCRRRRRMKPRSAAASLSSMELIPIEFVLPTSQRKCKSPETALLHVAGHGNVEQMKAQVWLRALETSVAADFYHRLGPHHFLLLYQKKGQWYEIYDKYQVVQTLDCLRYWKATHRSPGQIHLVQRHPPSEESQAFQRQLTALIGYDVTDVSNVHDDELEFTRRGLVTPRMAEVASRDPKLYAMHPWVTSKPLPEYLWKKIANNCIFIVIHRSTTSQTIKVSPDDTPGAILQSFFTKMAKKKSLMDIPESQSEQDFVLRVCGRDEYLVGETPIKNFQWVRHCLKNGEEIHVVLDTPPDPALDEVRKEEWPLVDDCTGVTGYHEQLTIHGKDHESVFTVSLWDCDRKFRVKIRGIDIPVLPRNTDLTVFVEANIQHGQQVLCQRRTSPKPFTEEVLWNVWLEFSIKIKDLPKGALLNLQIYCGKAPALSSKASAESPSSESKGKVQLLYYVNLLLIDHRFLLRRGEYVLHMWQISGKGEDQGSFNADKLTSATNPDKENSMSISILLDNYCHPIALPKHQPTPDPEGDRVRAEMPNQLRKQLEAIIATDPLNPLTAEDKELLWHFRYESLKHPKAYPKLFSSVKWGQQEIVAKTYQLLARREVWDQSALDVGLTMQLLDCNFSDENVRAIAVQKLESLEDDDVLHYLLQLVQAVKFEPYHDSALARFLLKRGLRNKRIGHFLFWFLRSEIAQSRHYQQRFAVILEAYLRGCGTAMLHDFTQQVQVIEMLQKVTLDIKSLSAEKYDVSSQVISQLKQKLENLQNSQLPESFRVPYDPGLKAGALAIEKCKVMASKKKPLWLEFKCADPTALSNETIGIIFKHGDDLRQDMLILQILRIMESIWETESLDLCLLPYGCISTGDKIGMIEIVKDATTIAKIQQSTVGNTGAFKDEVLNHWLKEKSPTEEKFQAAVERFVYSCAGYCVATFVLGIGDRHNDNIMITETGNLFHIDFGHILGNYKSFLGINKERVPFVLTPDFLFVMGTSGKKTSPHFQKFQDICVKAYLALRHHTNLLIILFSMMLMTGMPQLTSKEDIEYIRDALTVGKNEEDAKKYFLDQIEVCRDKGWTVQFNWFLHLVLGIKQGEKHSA
# recombinant PI3Kδ kinase [2] = molecular target: T1, recombinant PI3Kδ kinase; assay: Cell free PI3Kδ kinase activity, ADP-Glo chemiluminescence assay; details: PI3Kδ versus α, β, γ
# [3] = 15 hit compounds from NCI database, chemiluminescence method, read-out: PI3Kδ IC50
pIC50 (recombinant PI3Kδ kinase [1]; [3]),SMILES,also measured
3.30,CC(=O)Nc1cc2c(cc1Cl)-c1ccc(Cl)cc1C2=O [Compound 57442],
3.61,CC(=O)Nc1cc2c(cc1Br)-c1ccc(F)cc1C2=O [Compound 73075],
4.72,C/C(=N\Nc1cn[nH]c(=O)c1Br)c1ccccc1 [Compound 10],pIC50 (PI3Kα): 4.12; pIC50 (PI3Kβ): 3.73; pIC50 (PI3Kγ): 3.65; PI3K isoform selectivity (recombinant PI3Kδ kinase [2]): significant selectivity; also recorded: high isoform selectivity
4.55,CCN(CC)CCOc1nc2c(c(=O)n(C)c(=O)n2C)n1C [Compound 14317],
3.72,COc1cc(OC)c(OC)cc1/C=C/c1ccnc2ccccc12 [Compound 80756],
3.54,CCOC(=O)c1cc(Sc2ccccc2)nc2ccccc12 [Compound 25679],
3.28,CCOC(=O)Nc1ccc2c(c1Cl)C(=O)c1ccccc1C2=O [Compound 39951],
,"O=c1cc(N2CCOCC2)oc2c(-c3ccccc3)cccc12 [LY294002, reference compound]",pIC50 (recombinant PI3Kδ kinase [1]; read-out: PI3K IC50 δ): 5.46
3.09,O=C1c2ccccc2-c2cc(Br)c(NC(=O)C(F)(F)F)cc21 [Compound 80144],
3.32,COc1c2c(c3c(c1OC)c(=O)c1ccccc1n3C)OCO2 [Compound 34758],
3.77,CSc1cc2c(cc1NC(C)=O)C(=O)c1cc(F)ccc1-2 [Compound 109638],
4.14,CC/C(=N\Nc1cn[nH]c(=O)c1Br)c1ccccc1 [Compound 9],
